Here are results for 26 compounds from patent US6511961B1, “Cyclic peptides and medicinal use thereof” (Toray Industries, Inc., priority 1997, dated 2003).

The structures appear in SMILES notation. Like-named read-outs stand apart in the source and are kept apart here.

For this data set the following is noted: disulfide bond, 20-membered ring, AgOTf/anisole/TFA, then DMSO/HCl, 50% DMSO-1N HCl, 2 steps.

Turning to `CC[C@H](C)[C@@H]1NC(=O)[C@@H](N)CSSC[C@@H](C(=O)O)NC(=O)[C@H](CC(C)C)NC(=O)[C@H](Cc2ccc3ccccc3c2)NC(=O)[C@H](CC(=O)O)NC1=O` [C*IDAla(2-Naph)LC*], under “from H-Cys(Acm)-Ile-Asp-Ala(2-Naph)-Leu-Cys(Acm)-OH”, the ring closure, yield after HPLC stood at 38%.
Regarding `CC[C@H](C)[C@@H]1NC(=O)[C@@H](N)CSSC[C@@H](C(=O)O)NC(=O)[C@H](CC(C)C)NC(=O)[C@H](Cc2ccccn2)NC(=O)[C@H](CC(=O)O)NC1=O` [C*IDAla(2-Pyr)LC*], the ring closure, yield after HPLC (from H-Cys(Acm)-Ile-Asp-Ala(2-Pyr)-Leu-Cys(Acm)-OH) was 56%.
`CC[C@H](C)[C@@H]1NC(=O)[C@@H](N)CSSC[C@@H](C(=O)O)NC(=O)[C@H](CC(C)C)NC(=O)[C@H](CC2CCCCC2)NC(=O)[C@H](CC(=O)O)NC1=O` [C*IDChaLC*] displayed a ring closure, yield after HPLC (from H-Cys(Acm)-Ile-Asp-Cha-Leu-Cys(Acm)-OH) of 34%.
With `CC[C@H](C)[C@@H]1NC(=O)[C@H](Cc2ccccc2)NC(=O)[C@H](CC(=O)O)NC(=O)[C@H]([C@@H](C)CC)NC(=O)[C@@H](N)CSSC[C@@H](C(=O)O)NC1=O` [C*IDFIC*], the ring closure, yield after HPLC (from H-Cys(Acm)-Ile-Asp-Phe-Ile-Cys(Acm)-OH) stood at 37%.
The compound `CC[C@H](C)[C@@H]1NC(=O)[C@@H](N)CSSC[C@@H](C(=O)O)NC(=O)[C@H](CC(C)C)NC(=O)[C@H](Cc2ccccc2)NC(=O)[C@H](CC(=O)O)NC1=O` [C*IDFLC*] came in with a ring closure, yield after HPLC (from H-Cys(Acm)-Ile-Asp-Phe-Leu-Cys(Acm)-OH) of 50%.
`CC[C@H](C)[C@@H]1NC(=O)[C@H](Cc2c[nH]cn2)NC(=O)[C@H](CC(=O)O)NC(=O)[C@H]([C@@H](C)CC)NC(=O)[C@@H](N)CSSC[C@@H](C(=O)O)NC1=O` [C*IDHIC*] registered a ring closure, yield after HPLC (from H-Cys(Acm)-Ile-Asp-His-Ile-Cys(Acm)-OH) of 50%.
`CC[C@H](C)[C@@H]1NC(=O)[C@@H](N)CSSC[C@@H](C(=O)O)NC(=O)[C@H](CC(C)C)NC(=O)[C@H](Cc2c[nH]cn2)NC(=O)[C@H](CC(=O)O)NC1=O` [C*IDHLC*] had a ring closure, yield after HPLC (from H-Cys(Acm)-Ile-Asp-His-Leu-Cys(Acm)-OH, 0.48 mM) of 73%.
In the case of `CC[C@H](C)[C@@H]1NC(=O)[C@@H](N)CSSC[C@@H](C(N)=O)NC(=O)[C@H](CC(C)C)NC(=O)[C@H](Cc2c[nH]cn2)NC(=O)[C@H](CC(=O)O)NC1=O` [C*IDHLC*—NH2], the ring closure, yield after HPLC (from H-Cys(Acm)-Ile-Asp-His-Leu-Cys(Acm)-NH2) is 58%.
As for `CC[C@H](C)[C@@H]1NC(=O)[C@@H](N)CSSC[C@@H](C(=O)OC)NC(=O)[C@H](CC(C)C)NC(=O)[C@H](Cc2c[nH]cn2)NC(=O)[C@H](CC(=O)O)NC1=O` [C*IDHLC—OMe*], for the setting “from H-Cys(Acm)-Ile-Asp-His-Leu-Cys(Acm)-OMe”, the ring closure, yield after HPLC came to 35%.
As for `CC[C@H](C)[C@@H]1NC(=O)[C@@H](N)CSSC[C@@H](C(=O)O)NC(=O)[C@H](c2ccccc2)NC(=O)[C@H](Cc2c[nH]cn2)NC(=O)[C@H](CC(=O)O)NC1=O` [C*IDHPhgC*], under “from H-Cys(Acm)-Ile-Asp-His-Phg-Cys(Acm)-OH”, the ring closure, yield after HPLC was found to be 37%.
On to `CC[C@H](C)[C@@H]1NC(=O)[C@@H](N)CSSC[C@@H](C(=O)O)NC(=O)[C@@H](CC(C)C)NC(=O)[C@H](Cc2c[nH]cn2)NC(=O)[C@H](CC(=O)O)NC1=O` [C*IDHdLC*], for which, where the note is “from H-Cys(Acm)-Ile-Asp-His-dLeu-Cys(Acm)-OH”, the ring closure, yield after HPLC was determined as 51%.
The compound `CC[C@H](C)[C@@H]1NC(=O)[C@@H](N)CSSC[C@@H](C(=O)O)NC(=O)[C@@H](c2ccccc2)NC(=O)[C@H](Cc2c[nH]cn2)NC(=O)[C@H](CC(=O)O)NC1=O` [C*IDHdPhgC*] came in with a ring closure, yield after HPLC (from H-Cys(Acm)-Ile-Asp-His-dPhg-Cys(Acm)-OH) of 37%.
As for `CC[C@H](C)[C@@H]1NC(=O)[C@@H](N)CSSC[C@@H](C(=O)O)NC(=O)[C@H](CC(C)C)NC(=O)[C@H](CCc2ccccc2)NC(=O)[C@H](CC(=O)O)NC1=O` [C*IDHphLC*], under “from H-Cys(Acm)-Ile-Asp-Hph-Leu-Cys(Acm)-OH”, the ring closure, yield after HPLC was 38%.
`CC[C@H](C)[C@@H]1NC(=O)[C@@H](N)CSSC[C@@H](C(=O)O)NC(=O)[C@H](CC(C)C)NC(=O)[C@H](c2ccccc2)NC(=O)[C@H](CC(=O)O)NC1=O` [C*IDPhgLC*] showed a ring closure, yield after HPLC (from H-Cys(Acm)-Ile-Asp-Phg-Leu-Cys(Acm)-OH) of 48%.
Consider `CC[C@H](C)[C@@H]1NC(=O)[C@@H](N)CSSC[C@@H](C(=O)O)NC(=O)[C@H](CC(C)C)NC(=O)[C@H](C(C)(C)C)NC(=O)[C@H](CC(=O)O)NC1=O` [C*IDTleLC*], for which, under “from H-Cys(Acm)-Ile-Asp-Tle-Leu-Cys(Acm)-OH”, the ring closure, yield after HPLC is 23%.
The compound `CC[C@H](C)[C@@H]1NC(=O)[C@@H](N)CSSC[C@@H](C(=O)O)NC(=O)[C@H](CC(C)C)NC(=O)[C@H](Cc2c[nH]c3ccccc23)NC(=O)[C@H](CC(=O)O)NC1=O` [C*IDWLC*] yielded a ring closure, yield after HPLC (from H-Cys(Acm)-Ile-Asp-Trp-Leu-Cys(Acm)-OH) of 47%.
`CC[C@H](C)[C@@H]1NC(=O)[C@@H](N)CSSC[C@@H](C(=O)O)NC(=O)[C@H](CC(C)C)NC(=O)[C@@H](Cc2c[nH]cn2)NC(=O)[C@H](CC(=O)O)NC1=O` [C*IDdHLC*] had a ring closure, yield after HPLC (from H-Cys(Acm)-Ile-Asp-dHis-Leu-Cys(Acm)-OH) of 74%.
Compound `CC[C@H](C)[C@@H]1NC(=O)[C@@H](N)CSSC[C@@H](C(=O)O)NC(=O)[C@H](CC(C)C)NC(=O)[C@@H](c2ccccc2)NC(=O)[C@H](CC(=O)O)NC1=O` [C*IDdPhgLC*] had a ring closure, yield after HPLC (from H-Cys(Acm)-Ile-Asp-dPhg-Leu-Cys(Acm)-OH) of 8%.
Compound `CC[C@H](C)[C@@H]1NC(=O)[C@@H](N)CSSC[C@@H](C(=O)O)NC(=O)[C@H](CC(C)C)NC(=O)[C@H](Cc2c[nH]cn2)NC(=O)[C@H](CCC(=O)O)NC1=O` [C*IEHLC*] had a ring closure, yield after HPLC (from H-Cys(Acm)-Ile-Glu-His-Leu-Cys(Acm)-OH) of 71%.
As to `CC[C@H](C)[C@@H]1NC(=O)[C@@H](N)CSSC[C@@H](C(=O)O)NC(=O)[C@H](CC(C)C)NC(=O)[C@H](Cc2c[nH]cn2)NC(=O)[C@H](CCO)NC1=O` [C*IHseHLC*], under “from H-Cys(Acm)-Ile-Hse-His-Leu-Cys(Acm)-OH”, the ring closure, yield after HPLC stood at 56%.
With `CC[C@H](C)[C@@H]1NC(=O)[C@@H](N)CSSC[C@@H](C(=O)O)NC(=O)[C@H](CC(C)C)NC(=O)[C@H](Cc2c[nH]cn2)NC(=O)[C@H](CCS(C)(=O)=O)NC1=O` [C*IMet(O2)HLC*], the ring closure, yield after HPLC (from H-Cys(Acm)-Ile-Met(O2)-His-Leu-Cys(Acm)-OH) was 68%.
Regarding `CC[C@H](C)[C@@H]1NC(=O)[C@@H](N)CSSC[C@@H](C(=O)O)NC(=O)[C@H](CC(C)C)NC(=O)[C@H](Cc2c[nH]cn2)NC(=O)[C@H](CC(N)=O)NC1=O` [C*INHLC*], the ring closure, yield after HPLC (from H-Cys(Acm)-Ile-Asn-His-Leu-Cys(Acm)-OH) was 85%.
`CC[C@H](C)[C@@H]1NC(=O)[C@@H](N)CSSC[C@@H](C(N)=O)NC(=O)[C@H](CC(C)C)NC(=O)[C@H](Cc2c[nH]cn2)NC(=O)[C@H](CC(N)=O)NC1=O` [C*INHLC*—NH2]: the ring closure, yield after HPLC (from H-Cys(Acm)-Ile-Asn-His-Leu-Cys(Acm)-NH2) turned out to be 18%.
As for `CC[C@H](C)[C@@H]1NC(=O)[C@@H](N)CSSC[C@@H](C(=O)O)NC(=O)[C@H](CC(C)C)NC(=O)[C@H](Cc2c[nH]cn2)NC(=O)[C@H](COC)NC1=O` [C*IS(OMe)HLC*], the ring closure, yield after HPLC (from H-Cys(Acm)-Ile-Ser(OMe)-His-Leu-Cys(Acm)-OH) was 52%.
In the case of `CC[C@H](C)[C@@H]1NC(=O)[C@@H](N)CSSC[C@@H](C(=O)O)NC(=O)[C@H](CC(C)C)NC(=O)[C@H](Cc2c[nH]cn2)NC(=O)[C@H](Cc2ccc(O)cc2)NC1=O` [C*IYHLC*], the ring closure, yield after HPLC (from H-Cys(Acm)-Ile-Tyr-His-Leu-Cys(Acm)-OH) stood at 52%.
Take `CC(C)C[C@@H]1NC(=O)[C@H](Cc2c[nH]cn2)NC(=O)[C@H](CC(=O)O)NC(=O)[C@H](c2ccccc2)NC(=O)[C@@H](N)CSSC[C@@H](C(=O)O)NC1=O` [C*PhgDHLC*]: under “from H-Cys(Acm)-Phg-Asp-His-Leu-Cys(Acm)-OH”, the ring closure, yield after HPLC turned out to be 64%.
